Results taken from article PMC3070160 (Biochemistry, 2010).
Values belong to the compound of their own block, whether it stands above or below them.

Tests used:
Type in all cases: binding
[1] = molecular target: T1, yCBS (yeast cystathionine β-synthase) (Saccharomyces cerevisiae, UniProt P32582); experiment: double-mixing stopped-flow, […] nm decay, koff/kon
T1 sequence (P32582 1-507): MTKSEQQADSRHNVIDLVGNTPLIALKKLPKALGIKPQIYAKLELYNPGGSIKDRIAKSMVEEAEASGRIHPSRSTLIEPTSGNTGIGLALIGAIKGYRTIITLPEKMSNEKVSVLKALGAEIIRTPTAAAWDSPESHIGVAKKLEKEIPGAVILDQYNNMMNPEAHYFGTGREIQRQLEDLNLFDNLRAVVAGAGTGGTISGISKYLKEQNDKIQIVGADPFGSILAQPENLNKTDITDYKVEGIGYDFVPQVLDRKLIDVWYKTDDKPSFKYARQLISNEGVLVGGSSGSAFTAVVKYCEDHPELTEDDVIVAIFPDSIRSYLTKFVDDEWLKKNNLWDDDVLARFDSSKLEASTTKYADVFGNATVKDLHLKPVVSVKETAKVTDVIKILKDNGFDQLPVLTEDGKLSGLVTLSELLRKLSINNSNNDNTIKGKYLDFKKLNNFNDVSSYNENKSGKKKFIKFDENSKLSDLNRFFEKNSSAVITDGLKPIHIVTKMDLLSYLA

[2] = molecular target: T1, yCBS (yeast cystathionine β-synthase); experiment: stopped-flow, aminoacrylate formation at […] nm, hyperbolic fit of kobs
[3] = molecular target: T1, yCBS (yeast cystathionine β-synthase); experiment: UV-visible spectrum of enzyme as isolated; conditions: internal aldimine with Lys53; covalent

Kd [1]: 0.37 ± 0.02 mM
Structure (SMILES): N[C@@H](CCS)C(=O)O [L-homocysteine]

Kd [2]: 14.4 ± 1.7 mM
Structure (SMILES): N[C@@H](CO)C(=O)O [L-serine]

Structure (SMILES): Cc1ncc(COP(=O)(O)O)c(C=O)c1O [PLP]
UV-visible spectrum of enzyme as isolated [3]: protonated Schiff base (internal aldimine) between Lys53 in the active site and the PLP
